In US20230027072A1, “IMPROVED METHODS, KITS, COMPOSITIONS AND DOSING REGIMENS FOR THE USE OF HETEROCYCLIC INHIBITORS OF ERK1 AND ERK2” (Asana Biosciences, LLC, priority 2019, published 2023):

Legend:
[1] = test system: HCT116 (colorectal carcinoma, K Ras G13D) cells; assay: Cell proliferation (Alamar Blue) assay, HCT116; assay type: cell-based, human; details: Homo sapiens, HCT-116, 72 h
Protocol: (§1) Cell Proliferation (Alamar Blue) Assay
(§2) HT-29 (colorectal carcinoma, B-RafV600E), HCT116 (colorectal carcinoma, K Ras G13D), A375 (melanoma, B-RafV600E) and SK-Mel2 (melanoma, NRAS Q61R) cells (obtained from ATCC, USA) were seeded (5000 cells/well) in 96-well tissue culture plate and incubated at 37° C./5% CO2 for 16-24 hours. The cells were then treated with compounds, at concentrations typically from 0.0005 to 10 uM prepared in 3-fold serial dilutions. The plates were then incubated for 72 h at 37° C./5% CO2 in a moist environment. Then Alamar Blue™ reagent (final concentration 1×) was added to each well and incubated for 1-3 h at 37° C./5% CO2. The plates were read on fluorescence reader at 540 nm excitation and 590 nm emission wavelengths. The IC50 values were subsequently determined using a sigmoidal dose-response curve (variable slope) using GraphPad Prism® 5 software. Compounds of the present disclosure caused inhibition of HT-29, HCT116, A375 and SK-Mel2 cell proliferation as determined in these assays.

[2] = target: T1, ERK1 (Homo sapiens, UniProt P27361); assay: ERK1 HTRF (biochemical) assay
T1 construct: purchased Jubilant Biosys
Protocol: (§3) ERK1 and ERK2 HTRF (Biochemical) Assays
(§4) The assays described below employed a homogeneous time resolved fluorescence (HTRF) technique. The compounds were serially diluted by half-log with concentrations ranging from 0.0005 to 10 uM in the assay buffer (50 mM Tris pH-7.5, 1 mM EGTA, 2 mM DTT, 10 mM MgCl2, 0.1% Tween-20) and 20 uL of substrate-ATP mix [1 uM Biotin—LC-Myelin Basic Protein (MBP) derivatized Peptide (Anaspec)-24 uM ATP (Sigma)] was added to each well of the assay plate. Then 10 uL of enzyme mix [25 nM ERK1 or ERK2 (Jubilant Biosys) in assay buffer] was added to each well. The plate was incubated at room temperature for 60 min with shaking. The HTRF mix [625 nM LANCE® Ultra Europium-anti-phospho-MBP (Perkin Elmer) and 2 nM Phycolink® Streptavidin-Allophycocyanin (SA-APC) (Prozyme) in HTRF buffer (50 mM Tris-HCl pH-7.5, 100 mM NaCl, 0.1% BSA, 0.05% Tween20, 0.5 mM EDTA)] was prepared and 75 uL of this mix was added to the HTRF plate. After incubation for 60 min at room temperature, 10 uL of the reaction mixture was transferred to the HTRF assay plate and incubated for 45 min at room temperature with shaking. Plate was read using Pherastar in HTRF mode (excitation 337 nm, emission 665 & 620 nm). The IC50 values (half maximal inhibitory concentration values) were subsequently determined using a sigmoidal dose-response curve (variable slope) in GraphPad Prism® 5 software.

[3] = target: T2, ERK2 (Homo sapiens, UniProt P28482); assay: ERK2 HTRF (biochemical) assay
T2 construct: purchased Jubilant Biosys
Protocol: as §3, §4

[4] = test system: HT-29 (colorectal carcinoma, B-RafV600E) cells; assay: Cell proliferation (Alamar Blue) assay, HT-29; assay type: cell-based, human; details: Homo sapiens, HT-29, 72 h, read-out: Cell Proliferation Assay HT29 IC50
Protocol: as §1, §2

[5] = test system: phosphorylation of RSK1(S380) (the downstream target of ERK1/2); assay: Mechanistic (phospho-RSK1(S380) ELISA) assay in HT-29 cells; assay type: cell-based, human; details: Homo sapiens, HT-29, 2 h, 2 h treatment, read-out: Mechanistic Cell Assay RSK1 Phos HT29 IC50
Protocol: Mechanistic (Phospho-RSK1(5380) ELISA) Assay
HT-29 cells (colorectal carcinoma, B-RafV600E); obtained from ATCC, USA) were seeded (60,000 cells/well) in a 96-well plate and incubated at 37° C./5% CO2 overnight and then treated with desired compound dilutions for 2 h. Medium was removed and cells were rinsed once with ice-cold 1×PBS, then 0.070 mL ice-cold 1× cell lysis buffer containing 1 mM PMSF was added to each well and the plate was incubated on a shaker for 2 h and 30 min at 4° C. The plate was then centrifuged for 20 min (×4000 rpm) at 4° C. and the supernatant was transferred to a new plate. Cell lysates were diluted with sample diluent at a ratio of 1:1. The ELISA was then carried out following the manufacturer's protocol (PathScan® phospho-RSK1(Ser380) Sandwich ELISA Kit, Cell Signaling Technologies). The plate was read at 450 nm within 30 min after adding STOP solution. The IC50 values were subsequently determined using a sigmoidal dose-response curve (variable slope) in GraphPad Prism® 5 software. Compounds of the present disclosure inhibited phosphorylation of RSK1(5380) (the downstream target of ERK1/2) as determined in this assay.

T1 sequence (P27361 whole entry): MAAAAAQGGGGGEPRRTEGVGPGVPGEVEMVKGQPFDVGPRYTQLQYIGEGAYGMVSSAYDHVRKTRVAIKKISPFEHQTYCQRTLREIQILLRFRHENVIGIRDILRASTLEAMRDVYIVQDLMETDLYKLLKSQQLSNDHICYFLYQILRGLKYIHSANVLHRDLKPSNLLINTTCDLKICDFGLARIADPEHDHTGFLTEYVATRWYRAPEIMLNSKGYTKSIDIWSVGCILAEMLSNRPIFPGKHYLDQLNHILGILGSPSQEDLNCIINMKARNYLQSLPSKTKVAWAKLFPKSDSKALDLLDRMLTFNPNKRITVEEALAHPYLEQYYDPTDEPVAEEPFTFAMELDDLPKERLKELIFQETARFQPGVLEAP
T2 sequence (P28482 whole entry): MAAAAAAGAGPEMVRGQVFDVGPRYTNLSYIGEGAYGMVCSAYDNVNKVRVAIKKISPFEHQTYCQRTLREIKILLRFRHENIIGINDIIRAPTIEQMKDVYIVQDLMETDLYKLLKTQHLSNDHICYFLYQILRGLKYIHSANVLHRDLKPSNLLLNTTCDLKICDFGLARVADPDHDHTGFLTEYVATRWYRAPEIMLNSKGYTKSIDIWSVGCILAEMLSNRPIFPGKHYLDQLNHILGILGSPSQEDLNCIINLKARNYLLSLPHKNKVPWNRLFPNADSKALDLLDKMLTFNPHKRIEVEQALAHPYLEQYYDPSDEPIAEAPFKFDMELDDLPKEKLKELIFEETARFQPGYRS

| Structure (SMILES) | IC50 [1] [µM] | IC50 [2] [µM] | IC50 [3] [µM] | IC50 [4] [µM] | IC50 [5] [µM] |
| --- | --- | --- | --- | --- | --- |
| CC[C@@H](CO)Nc1cc(-n2cnc(C(=O)NC(CO)c3cccc(Cl)c3)c2)ccn1 (stereo partly drawn) [Compound 105, N-(1-(3-chlorophenyl)-2-hydroxyethyl)-1-(2-(((S)-1-hydroxybutan-2-yl)-amino)pyridin-4-yl)-1H-imidazole-4-carboxamide] | > 2.5 | ≤ 0.05 | ≤ 0.05 | > 2.5 | 0.1 to 0.25 |
| Cc1cnc(Nc2ccc(Oc3ccccc3)cc2)nc1-n1cnc(C(=O)N[C@H](CO)c2cccc(Cl)c2)c1 [Example 250, N-(1-(3-chlorophenyl)-2-hydroxyethyl)-1-(5-methyl-2-((4-phenoxyphenyl)-amino)pyrimidin-4-yl)-1H-imidazole-4-carboxamide] |  | 0.5 to 2.5 | 0.1 to 0.5 |  |  |
| Cc1cnc(N[C@H]2CCOC2)nc1-n1cnc(C(=O)N[C@H](CN)c2cc(F)cc(Cl)c2)c1 [Example 282, N-(2-amino-1-(3-chloro-5-fluorophenyl)ethyl)-1-(5-methyl-2-(((S)-tetrahydrofuran-3-yl)amino)pyrimidin-4-yl)-1H-imidazole-4-carboxamide] | ≤ 0.1 | ≤ 0.05 | ≤ 0.05 | ≤ 0.1 | ≤ 0.1 |
| Cc1cnc(NC(C)C2CCOCC2)nc1-n1cnc(C(=O)N[C@H](CO)c2cccc(Cl)c2)c1 (stereo partly shown) [Example 239] | > 2.5 | ≤ 0.05 | ≤ 0.05 |  | 0.5 to 2.5 |
